Assay [1] concerns HUVEC cells. Kind of assay: Electric-field-induced reorientation of endothelial cells (orientation index Oi). Conditions: for orientation response in EF (in words): inhibitors 50 μM (latrunculin 50 nM), 1 hour before and during EF. Type of assay: cell-based.
Protocol: A series of images was taken with an image analyser immediately before EF exposure and at 4, 8 and 24 hours of EF exposure. Cell orientation was quantified as an orientation index (Oi), which is defined as Oi=cos2 (a), where a is the angle formed by the long axis of a cell with a line drawn perpendicular to the field lines. A cell with its long axis parallel to the vector of the EF will have an Oi of −1, and a cell with its long axis exactly perpendicular to the EF vector will have an Oi of +1. A randomly oriented population of cells will have an average Oi {defined as [Σn cos2(α)]+n} of 0. The significance of this two-dimensional orientation distribution against randomness was calculated using Rayleigh's distribution. A long:short axis ratio was calculated for assessment of elongation.
Cell alignment was quantified using an orientation index Oi=cos2(α), where a is the angle formed between the long axis of a cell and a line drawn perpendicular to the field lines. In cells oriented perpendicular to the field vector, the Oi is +1, cells parallel to the field vector give an Oi of −1 and random orientation gives an Oi of 0.
Assay [2] concerns HUVEC cells. Kind of assay: Electric-field-induced elongation of endothelial cells (long:short axis ratio). The assay is classed as cell-based. The procedure: HUVEC cells were seeded in a trough formed by two parallel (1 cm apart) strips of glass coverslip (No. 1, length of 22 mm) fixed to the base of the dish with silicone grease. Scratch lines were made perpendicular to the long axis of the chamber with a fine sterile needle and used as reference marks for directed cell migration. Cells were incubated for 24-48 hours (37° C., 5% CO2) before a roof coverslip was applied and sealed with silicone grease. The final dimensions of the chamber, through which current was passed, were 22×10×0.2 mm. Agar-salt bridges not less than 15 cm long were used to connect silver/silver-chloride electrodes in beakers of Steinberg's solution (58 mM NaCl, 0.67 mM KCl, 0.44 mM Ca(NO3)2, 1.3 mM MgSO4, 4.6 mM Trizma base, pH 7.8-8.0), to pools of excess culture medium at either side of the chamber. Field strengths were measured directly at the beginning of, the end of and during each experiment. No fluctuations in field strength were observed. […] (50 μM), the Rho kinase inhibitor Y27632 (50 μM), both Akt and Rho kinase inhibitors (10 μM each) or latrunculin (50 nM) for 1 hour before EF stimulation. The same concentration of drug was present during EF exposure in a CO2 incubator.
A series of images was taken with an image analyser immediately before EF exposure and at 4, 8 and 24 hours of EF exposure. Cell orientation was quantified as an orientation index (Oi), which is defined as Oi=cos2 (a), where a is the angle formed by the long axis of a cell with a line drawn […] to the field lines. A cell with its long axis parallel to the vector of the EF will have an Oi of −1, and a cell with its long axis exactly perpendicular to the EF vector will have an Oi of +1. […] The significance of this two-dimensional orientation distribution against randomness was calculated using Rayleigh's distribution. A long:short axis ratio was calculated for assessment of elongation.
HUVEC cells elongated dramatically in an EF. […] We quantified the elongation of the cells using a long:short axis ratio. […]

Assay [3] relates to HaCaT human keratinocytes. Kind of assay: Scratch assay, HaCaT keratinocyte migration, Example 3. Conditions: catalase over-expression; 5 mM N-acetylcysteine 1 h pretreatment; 50 nM IGF-1R inhibitor.
Protocol: Cell culture—Immortalized HaCaT human keratinocytes were grown in Dulbecco's low-glucose modified Eagle's medium (Life Technologies, Gaithersburg, MD, U.S.A.) supplemented with 10% fetal bovine serum, 100 U/ml penicillin, and 100 g/ml streptomycin. The cells were maintained in a standard culture incubator with humidified air containing 5% CO2 at 37° C.
Scratch assay—A cell migration assay was performed using culture inserts (IBIDI®, Verona, WI) according to the manufacturer's instructions. Cell migration was measured using time-lapse phase-contrast microscopy following withdrawal of the insert. Images were analyzed using the AxioVision Rel 4.8 software.
N-Acetyl Cysteine Treatment—Cells were pretreated with 5 mM of the thiol antioxidant N-acetylcysteine (Sigma) for 1 h before start of the scratch assay.
IGF-1R inhibition—When applicable, cells were preincubated with 50 nM IGF-1R inhibitor, picropodophyllin (Calbiochem, MA) just prior to the Scratch Assay.
Catalase gene delivery—HaCaT cells were transfected with 2.3×10^7 pfu AdCatalase or with the empty vector as control in 750 μL of media. Subsequently, 750 μL of additional media was added 4 h later and the cells were incubated for 72 h.

This is an account of results in patent publication US12185774B2, “Methods and devices for preventing viral transmission” (priority 2020, dated 2025).

As to `C[C@@H](N)[C@H]1CC[C@H](C(=O)Nc2ccncc2)CC1` [Y27632], the “orientation index Oi” value in assay [1] (value in sentence on U0126 (50 μM)) stood at 0.33±0.03. Further, the “long:short axis ratio / elongation response in EF-treated cells (in words)” value in assay [2] is recorded as “significantly decreased the long:short axis ratio”.

Take “1-L-6-hydroxymethyl-chiro-inositol 2-[(R)-2-O-methyl-3-O-octadecylcarbonate] [Akt inhibitor]”: the “orientation response in EF (in words)” value in assay [1] is listed as “significantly decreased the orientation response”. In addition, the “long:short axis ratio / elongation response in EF-treated cells (in words)” value in assay [2] was “significantly decreased the long:short axis ratio”. Regarding `CC(=O)N[C@@H](CS)C(=O)O` [N-Acetyl Cysteine], in assay [3], the “effect on the increased migration triggered by LLEC” value is given as “failed to reproduce the increased migration”. Consider `C/C1=C/C(=O)O[C@@H]2C[C@@H](CC[C@H](C)/C=C\C=C\CC1)O[C@@](O)([C@@H]1CSC(=O)N1)C2` [Latrunculin A], for which the “orientation response in EF (in words)” value in assay [1] was “suppressed the orientation response significantly”. In addition, the “long:short axis ratio / elongation response in EF-treated cells (in words)” value in assay [2] is given as “completely abolished the EF-induced elongation response”. On to `COc1cc2ncnc(Nc3ccc(Cl)cc3F)c2cc1OC` [VEGFR inhibitor, 4-[(4′-chloro-2′-fluoro)phenylamino]-6,7-dimethoxyquinazoline], for which the “orientation response in EF (in words)” value in assay [1] was “completely abolished the reorientation”.

For `COc1cc([C@@H]2c3cc4c(cc3[C@H](O)[C@H]3COC(=O)[C@@H]23)OCO4)cc(OC)c1OC` [IGF-1R inhibitor, picropodophyllin], the “effect on the increased migration triggered by LLEC” value in assay [3] was “attenuated the increased keratinocyte migration”. For the compound `N#CC(=C(/N)Sc1ccccc1N)/C(C#N)=C(\N)Sc1ccccc1N` [U0126], in assay [1], the “orientation response in EF (in words)” value was “decreased the orientation to a similar extent”. catalase: the “effect on the increased migration triggered by LLEC” value in assay [3] is given as “attenuated the increased migration”.
